# Laboratory results published in US5861269A, “Methods for removing interferences due to endogenous dehydrogenases in enzyme assays” (Dade Behring Marburg GmbH, priority 1996, dated 1999).
# What was measured:
# [1] = system: endogenous dehydrogenases; assay: Emit Ethyl Alcohol Assay with inhibitor, whole blood samples; format: biochemical; details: whole blood ethanol samples
# Procedure: (§1) The ability of inhibitors to prevent false positive results with samples containing endogenous dehydrogenases was determined by employing the Emit® Ethyl Alcohol Assay available from Syva Company, San Jose, Calif. (Part No. 9K219). The assays were performed on the Cobas Mira-S analyzer (Roche Diagnostics Inc., Nutley, N.J.) according to the manufacturer's instructions using the protocol provided by Syva Company. Briefly, the Emit® Ethyl Alcohol Assay consists of two reagents, Reagent 1 and Reagent 2. Reagent 1 contains Tris buffer, stabilizers and preservatives. Reagent 2 contains alcohol dehydrogenase, nicotinamide adenine dinucleotide (NAD^+), bulking agents, stabilizers, surfactants and preservatives. Reagent 2 is shipped in dry form and is reconstituted according to the manufacturer's instructions. To perform the assay, Reagent 1 and Reagent 2 %ere added to the sample. Following mixing and incubation, the change in absorbance at 340 nm was monitored. The reaction is linear, and calibration was achieved by single point calibration using a 100 mg/dL (0.10%) calibrator, supplied by Syva Company. The calculation of results was not required. The instrument prints the quantitative result.
# In the following examples, results reported under the column Current Emit® refer to results observed using the Emit® Ethyl Alcohol assay in the absence of inhibitor. […]
# [2] = system: endogenous dehydrogenases; assay: Emit Ethyl Alcohol Assay with inhibitor, serum samples falsely elevated by endogenous dehydrogenases; format: biochemical; details: inhibitor in Reagent 1
# Procedure: as §1, with “(Part” for “The ability of inhibitors to prevent false positive results with samples containing endogenous dehydrogenases was determined by employing the Emit® Ethyl Alcohol Assay available from Syva Company, San Jose, Calif. (Part”
# Results reported under the column GC refer to confirmatory results obtained using gas chromatography.
# Agaric acid was dissolved in Emit® Ethyl Alcohol Reagent 1 by stirring with heat to a concentration of 25 mM. […] The solution was cooled to room temperature. The pH of the solution was measured and adjusted to the pH of the Emit® Ethyl Alcohol Reagent 1 (pH 9.0) with a small volume of 10N NaOH. […] These discrepant samples were analyzed using the Emit® Ethyl Alcohol Assay side by side with the assay containing agaric acid.
# [3] = system: α-glycerophosphate dehydrogenase; details: Bacchi et al., J. Bacteriol. 98(1), 23-28 (1969); cited from earlier work
# malate dehydrogenase = details: Bacchi et al., J. Bacteriol. 98(1), 23-28 (1969); cited from earlier work
Structure (SMILES),Accuracy of the Emit Ethyl Alcohol Assay versus current Emit product [1],Effect on elevated (false-positive) ethanol results of the Emit Ethyl Alcohol Assay [2],Inhibition of α-glycerophosphate dehydrogenase [3],Inhibition of malate dehydrogenase (malate dehydrogenase)
"CCCCCCCCCCCCCCCCC(C(=O)O)C(O)(CC(=O)O)C(=O)O (centres unmarked) [Agaric Acid, Agaric acid]",improved accuracy,eliminated,highly inhibitory,highly inhibitory
"CCCCCCCCCCCC(=O)O [Lauric Acid, Lauric acid]",,eliminated,,
"CCCC/C=C\CCCCCCCC(=O)O [Myristoleic Acid, myristoleic acid]",,eliminated,,
"CCCCCCCCCCCCOS(=O)(=O)[O-].[Na+] [SDS, sodium dodecyl sulfate]",,eliminated,,
"CCCCCCCCCCOS(=O)(=O)[O-].[Na+] [Sodium Decyl Sulfate, sodium decyl sulfate]",,eliminated,,
